Results on 3 compounds are retold here after patent US12414980B2, “Pharmaceutical composition comprising RUNX3 protein and CDK4 inhibitor or mTOR inhibitor cotreatment for prevention or treatment of cancer” (GeneCraft Inc., priority 2020, dated 2025).

Data set [1] concerns Runx3-BRD2 complex. Description: Runx3-BRD2 complex formation after serum stimulation, immunoprecipitation (IP) and immunoblotting (IB). It counts as cell-based. Conditions: for time for which the binding of Runx3 and BRD2 was maintained: after serum stimulation. (In general: Immunoblotting shows a protein as a band on a membrane.)
The subject of data set [2] is normal cells. The note with it: cited from earlier work.
The test system of data set [3] is H460 lung cancer cell line. Conditions: administered simultaneously with adenovirus expressing Runx3 protein, FIG. 8.
Description: H460 cells (ATCC, Manassas, VA, USA) and H460 stable cells were maintained in RPMI 1640 medium (Gibco BRL) supplemented with 10% fetal bovine serum (Gibco BRL) and 1% penicillin/streptomycin (Invitrogen). All the cell lines were cultured in a 37° C., 5% CO2 incubator.
(§1) Cells were harvested and processed using FITC-Annexin V Apoptosis Detection Kit I (BD Biosciences, San Jose, CA, USA) and propidium iodide DNA staining protocol. Apoptosis and cell cycle were analyzed by flow cytometry on a BD FACS caliber machine (BD Biosciences). All data were analyzed using FlowJo software (https://www.flowjo.com).
Particularly, each cell line prepared in Experimental Methods 1 and 4 was harvested and processed using FITC-Annexin V Apoptosis Detection Kit I (BD Biosciences, San Jose, CA, USA) and propidium iodide DNA staining protocol. Apoptosis and cell cycle were analyzed by flow cytometry on a BD FACS caliber machine (BD Biosciences). All data were analyzed using FlowJo software (https://www.flowjo.com).
In data set [4] the test system is PANC1 pancreatic cancer cell line. Conditions: administered simultaneously with adenovirus expressing Runx3 protein, FIG. 8.
Description: as §1
In data set [5] the test system is ARF. Description: time-dependent expression of ARF after serum stimulation, immunoblotting (IB). It counts as cell-based. Conditions: suppression of mTOR using rapamycin (100 nM per methods); FIG. 3h. From the text:
HDAC4 siRNA was purchased from Cell Signaling Technology.

The test system of data set [6] is p300-RUNX3 complex. The note with it: treatment with MEK1 inhibitor (1 μM per methods); FIG. 3a.
Description: Transient transfection was performed in all cell lines using lipofectamine plus reagent and lipofectamine (Invitrogen). Cell lysates were incubated with an appropriate monoclonal or polyclonal antibody (2 μg of antibody/500 μg of lysate sample) at 4° C. for 3 hours, followed by incubation with protein G-Sepharose beads (Amersham Pharmacia Biotech, Piscataway, NJ, USA). For the detection of endogenous proteins at 4° C. for 1 hour, the lysate was incubated with an appropriate monoclonal or polyclonal antibody (1:1000˜1:3000) at 4° C. for 6 to 12 hours, and then protein G-Sepharose beads (Amersham Pharmacia Biotech) were heated at 4° C. for 3 hours. The immune precipitate was digested on an SDS-polyacrylamide gel electrophoresis (SDS-PAGE) gel and transferred to a PVDF membrane (Millipore, Billerica, MA, USA). The membrane was blocked, immunoblotted with an appropriate antibody, treated with ECL solution (Amersham Pharmacia Biotech), and visualized in Amersham™ Imager 600 (GE Healthcare, Chicago, IL, USA).
Before serum starvation, a knockdown assay was performed by transfecting HEK293 cells with 50 nM siRNA using RNAiMAX (Invitrogen, CA, USA). Cells were harvested at the designated time points after serum stimulation. […] HDAC4 siRNA was purchased from Cell Signaling Technology.

The structures appear in SMILES notation.

Turning to `CC(=O)c1c(C)c2cnc(Nc3ccc(N4CCNCC4)cn3)nc2n(C2CCCC2)c1=O` [PD0332991], the “physical binding between Runx3 and Brd2 8 hours after serum stimulation” value in data set [1] (CDK4 inhibitor at 1 nM) is “not observed”. For the same compound, in data set [1] (CDK4 inhibitor present at 11 nM, FIG. 5), the “time for which the binding of Runx3 and BRD2 was maintained” value is “up to 8 hours”. In addition, the “toxicity to normal cells” value in data set [2] (concentration of 11 nM) was “non-toxic”. Further, the “cancer apoptotic effect versus adenovirus expressing Runx3 protein alone” value in data set [3] and in data set [4] was “significantly increased” throughout.
Regarding `CO[C@H]1C[C@@H]2CC[C@@H](C)[C@@](O)(O2)C(=O)C(=O)N2CCCC[C@H]2C(=O)O[C@H]([C@H](C)C[C@@H]2CC[C@@H](O)[C@H](OC)C2)CC(=O)[C@H](C)/C=C(\C)[C@@H](O)[C@@H](OC)C(=O)[C@H](C)C[C@H](C)/C=C/C=C/C=C/1C` [rapamycin], in data set [1] (mTOR inhibitor present at 100 nM, FIG. 6), the “time for which the binding of Runx3 and BRD2 was maintained” value is “up to 8 hours”. For the same compound, the “maintenance of Rpa-RX3-AC” value in data set [1] (suppression of mTOR using rapamycin (100 nM per methods), FIG. 3h) was “maintained”. Also, the “time to which the expression of ARF was extended” value in data set [5] was “up to 8 hours”. Further, the “cytotoxicity to normal cells” value in data set [2] (concentration of 100 nM) is listed as “non-cytotoxic”. Further, the “cancer apoptotic effect versus adenovirus expressing Runx3 protein alone” value in data set [3] and in data set [4] was “significantly increased” in each case.
`N#CC(=C(/N)Sc1ccccc1N)/C(C#N)=C(\N)Sc1ccccc1N` [U0126]: the “binding of BRD2-RUNX3” value in data set [1] (treatment with MEK1 inhibitor (1 μM per methods), FIG. 3a) is “inhibited”. In addition, the “binding of p300-RUNX3” value in data set [6] is “inhibited”.
